Laboratory results as given in patent US12077503B2, “Substituted cyclic amides and their use as herbicides” (FMC CORPORATION, priority 2015, dated 2024).

Legend:
Assay type in all cases: in vivo
[1] = test system: blackgrass (Alopecurus myosuroides); assay: Test A postemergence; conditions: Alopecurus myosuroides, post-emergence, 240 h
Method in brief: (§1)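 Visual injury scores from 0, no effect, to 100, complete control, were assigned versus untreated controls roughly 10 d after treatment in the greenhouse. Test chemicals, formulated with surfactant in a non-phytotoxic solvent, were applied to planted seeds as a preemergence soil spray or postemergence to one- to two-leaf plants 2 to 10 cm tall, in loam–sand soil.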

[2] = test system: pigweed (Amaranthus retroflexus); assay: Test A postemergence; conditions: Amaranthus retroflexus, post-emergence, 240 h
Method in brief: as §1

[3] = test system: wheat (Triticum aestivum); assay: Test A postemergence; conditions: Triticum aestivum, post-emergence, 240 h
Method in brief: as §1

[4] = test system: ragweed (common ragweed, Ambrosia elatior); assay: Test A postemergence; conditions: Ambrosia artemisiifolia, post-emergence, 240 h
Method in brief: as §1

corn (Zea mays) = assay: Test A postemergence; conditions: Zea mays, post-emergence, 240 h
Method in brief: as §1

[5] = test system: barnyardgrass (Echinochloa crus-galli); assay: Test A postemergence; conditions: Echinochloa crus-galli, post-emergence, 240 h
Method in brief: as §1

[6] = test system: ryegrass, Italian (Italian ryegrass, Lolium multiflorum); assay: Test A postemergence; conditions: Lolium multiflorum, post-emergence, 240 h
Method in brief: as §1

[7] = test system: giant foxtail (Setaria faberii); assay: Test A postemergence; conditions: Setaria faberi, post-emergence, 240 h
Method in brief: as §1

Kochia (Kochia scoparia) [8] = assay: Test A postemergence; conditions: Bassia scoparia, post-emergence, 240 h
Method in brief: as §1

[9] = test system: Galium (catchweed bedstraw, Galium aparine); assay: Test A postemergence; conditions: Galium, post-emergence, 240 h
Method in brief: as §1

rice (Oryra sativa) = assay: Test B flooded paddy test; conditions: Oryza sativa, 250 g ai/ha, Flood; 0 to 100 scale where 0 is no effect and 100 is complete control; read-out: Rice plant response rating
Method in brief: (§2)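 Visual ratings (0 none to 100 complete control) are relative to untreated plants, taken 13–15 d after treatment in a greenhouse. Test material went straight into floodwater standing 3 cm above the soil, kept constant, on plants at the 2-leaf stage.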

[10] = test system: barnyardgrass (Echinochloa crus-galli); assay: Test B flooded paddy test; conditions: Echinochloa crus-galli, 250 g ai/ha, Flood; 0 to 100 scale where 0 is no effect and 100 is complete control; read-out: Barnyardgrass plant response rating
Method in brief: as §2

[11] = test system: ducksalad (Heteranthera limosa); assay: Test B flooded paddy test; conditions: Heteranthera limosa, 250 g ai/ha, Flood; 0 to 100 scale where 0 is no effect and 100 is complete control; read-out: Ducksalad plant response rating
Method in brief: as §2

[12] = test system: sedge, umbrella (small-flower umbrella sedge, Cyperus difformis); assay: Test B flooded paddy test; conditions: Cyperus difformis, 250 g ai/ha, Flood; 0 to 100 scale where 0 is no effect and 100 is complete control; read-out: Sedge, Umbrella plant response rating
Method in brief: as §2

[13] = test system: pigweed (Amaranthus retroflexus); assay: Test A preemergence; conditions: Amaranthus retroflexus, pre-emergence, 240 h, 0 to 100 scale where 0 is no effect and 100 is complete control, read-out: Pigweed plant response rating
[14] = test system: ragweed (common ragweed, Ambrosia elatior); assay: Test A preemergence; conditions: Ambrosia artemisiifolia, pre-emergence, 240 h, 0 to 100 scale where 0 is no effect and 100 is complete control, read-out: Ragweed plant response rating
Method in brief: as §1

[15] = test system: barnyardgrass (Echinochloa crus-galli); assay: Test A preemergence; conditions: Echinochloa crus-galli, pre-emergence, 240 h, Preemergence
Method in brief: as §1

[16] = test system: ryegrass, Italian (Italian ryegrass, Lolium multiflorum); assay: Test A preemergence; conditions: Lolium multiflorum, pre-emergence, 240 h, 0 to 100 scale where 0 is no effect and 100 is complete control, read-out: Ryegrass, Italian plant response rating
Method in brief: as §1

[17] = test system: giant foxtail (Setaria faberii); assay: Test A preemergence; conditions: Setaria faberi, pre-emergence, 240 h, Preemergence
Method in brief: as §1

Kochia (Kochia scoparia) [18] = assay: Test A preemergence; conditions: Bassia scoparia, pre-emergence, 240 h, 0 to 100 scale where 0 is no effect and 100 is complete control, read-out: Kochia plant response rating
Method in brief: as §1

[19] = 125 g ai/ha, preemergence, approx. 10 d

`CN1C[C@H](c2cccc(C(F)(F)F)c2)[C@@H](C(=O)Nc2cnccc2C(F)(F)F)C1=O` [Compound 1066] was tested. Which pest or weed control at 125 g/ha ([1]; 125 g ai/ha, postemergence, visual injury on 0 to 100 scale (0 no effect, 100 complete control), approx. 10 d, read-out: Blackgrass plant response rating) did it give?
The pest or weed control at 125 g/ha was 60%.

And the pest or weed control at 31 g/ha ([1]; Postemergence, 31 g ai/ha, visual injury after approx. 10 d, 0 to 100 scale, 0 no effect, 100 complete control, read-out: Plant response rating, Blackgrass)?
The pest or weed control at 31 g/ha was 0%.

What about the pest or weed control at 125 g/ha ([2]; 125 g ai/ha, postemergence, visual injury on 0 to 100 scale (0 no effect, 100 complete control), approx. 10 d, read-out: Pigweed plant response rating) of the same molecule?
Its pest or weed control at 125 g/ha is 0%.

What about the pest or weed control at 31 g/ha ([2]; Postemergence, 31 g ai/ha, visual injury after approx. 10 d, 0 to 100 scale, 0 no effect, 100 complete control, read-out: Plant response rating, Pigweed) of the same molecule?
Its pest or weed control at 31 g/ha is 0%.

What about the plant injury at 125 g/ha ([3]; 125 g ai/ha, postemergence, visual injury on 0 to 100 scale (0 no effect, 100 complete control), approx. 10 d, read-out: Wheat plant response rating) of the same molecule?
Its plant injury at 125 g/ha is 50%.

What about the plant injury at 31 g/ha ([3]; Postemergence, 31 g ai/ha, visual injury after approx. 10 d, 0 to 100 scale, 0 no effect, 100 complete control, read-out: Plant response rating, Wheat) of the same molecule?
The plant injury at 31 g/ha was 0%.

What about the pest or weed control at 125 g/ha ([4]; 125 g ai/ha, postemergence, visual injury on 0 to 100 scale (0 no effect, 100 complete control), approx. 10 d, read-out: Ragweed plant response rating) of the same molecule?
Its pest or weed control at 125 g/ha is 0%.

What about the pest or weed control at 31 g/ha ([4]; Postemergence, 31 g ai/ha, visual injury after approx. 10 d, 0 to 100 scale, 0 no effect, 100 complete control, read-out: Plant response rating, Ragweed) of the same molecule?
Its pest or weed control at 31 g/ha is 0%.

And the plant injury at 125 g/ha (corn (Zea mays); 125 g ai/ha, postemergence, visual injury on 0 to 100 scale (0 no effect, 100 complete control), approx. 10 d, read-out: Corn plant response rating)?
Its plant injury at 125 g/ha is 40%.

And the Corn plant response rating (crop injury, 0 = no effect, 100 = complete kill) at 31 g/ha (corn (Zea mays); Postemergence, 31 g ai/ha, visual injury after approx. 10 d, 0 to 100 scale, 0 no effect, 100 complete control)?
The Corn plant response rating (crop injury, 0 = no effect, 100 = complete kill) at 31 g/ha was 0%.

What about the pest or weed control at 125 g/ha ([5]; 125 g ai/ha, postemergence, visual injury on 0 to 100 scale (0 no effect, 100 complete control), approx. 10 d, read-out: Barnyardgrass plant response rating) of the same molecule?
Its pest or weed control at 125 g/ha is 70%.

And the pest or weed control at 31 g/ha ([5]; Postemergence, 31 g ai/ha, visual injury after approx. 10 d, 0 to 100 scale, 0 no effect, 100 complete control, read-out: Plant response rating, Barnyardgrass)?
Its pest or weed control at 31 g/ha is 50%.

And the pest or weed control at 125 g/ha ([6]; 125 g ai/ha, postemergence, visual injury on 0 to 100 scale (0 no effect, 100 complete control), approx. 10 d, read-out: Ryegrass, Italian plant response rating)?
The pest or weed control at 125 g/ha was 30%.

What about the pest or weed control at 31 g/ha ([6]; Postemergence, 31 g ai/ha, visual injury after approx. 10 d, 0 to 100 scale, 0 no effect, 100 complete control, read-out: Plant response rating, Ryegrass, Italian) of the same molecule?
Its pest or weed control at 31 g/ha is 30%.

And the pest or weed control at 125 g/ha ([7]; 125 g ai/ha, postemergence, visual injury on 0 to 100 scale (0 no effect, 100 complete control), approx. 10 d, read-out: Foxtail, Giant plant response rating)?
Its pest or weed control at 125 g/ha is 90%.

And the pest or weed control at 31 g/ha ([7]; Postemergence, 31 g ai/ha, visual injury after approx. 10 d, 0 to 100 scale, 0 no effect, 100 complete control, read-out: Plant response rating, Foxtail, Giant)?
Its pest or weed control at 31 g/ha is 70%.

What about the pest or weed control at 125 g/ha (Kochia (Kochia scoparia) [8]; 125 g ai/ha, postemergence, visual injury on 0 to 100 scale (0 no effect, 100 complete control), approx. 10 d, read-out: Kochia plant response rating) of the same molecule?
Its pest or weed control at 125 g/ha is 0%.

What about the pest or weed control at 31 g/ha (Kochia (Kochia scoparia) [8]; Postemergence, 31 g ai/ha, visual injury after approx. 10 d, 0 to 100 scale, 0 no effect, 100 complete control, read-out: Plant response rating, Kochia) of the same molecule?
The pest or weed control at 31 g/ha was 0%.

And the pest or weed control at 125 g/ha ([9]; 125 g ai/ha, postemergence, visual injury on 0 to 100 scale (0 no effect, 100 complete control), approx. 10 d, read-out: Galium plant response rating)?
Its pest or weed control at 125 g/ha is 50%.

What about the pest or weed control at 31 g/ha ([9]; Postemergence, 31 g ai/ha, visual injury after approx. 10 d, 0 to 100 scale, 0 no effect, 100 complete control, read-out: Plant response rating, Galium) of the same molecule?
Its pest or weed control at 31 g/ha is 0%.

And the pest or weed control at 250 g/ha (rice (Oryra sativa))?
Its pest or weed control at 250 g/ha is 0%.

What about the pest or weed control at 250 g/ha [10] of the same molecule?
The pest or weed control at 250 g/ha was 45%.

And the pest or weed control at 250 g/ha [11]?
Its pest or weed control at 250 g/ha is 75%.

And the pest or weed control at 250 g/ha [12]?
Its pest or weed control at 250 g/ha is 0%.

And the pest or weed control at 31 g/ha ([13]; 31 g ai/ha, Preemergence)?
Its pest or weed control at 31 g/ha is 0%.

What about the pest or weed control at 125 g/ha [13, 19] of the same molecule?
Its pest or weed control at 125 g/ha is 20%.

What about the pest or weed control at 31 g/ha ([14]; 31 g ai/ha, Preemergence) of the same molecule?
Its pest or weed control at 31 g/ha is 0%.

And the pest or weed control at 125 g/ha [14, 19]?
Its pest or weed control at 125 g/ha is 0%.

What about the pest or weed control at 31 g/ha ([15]; 31 g ai/ha, 0 to 100 scale where 0 is no effect and 100 is complete control, read-out: Barnyardgrass plant response rating) of the same molecule?
The pest or weed control at 31 g/ha was 50%.

What about the pest or weed control at 125 g/ha ([15]; 125 g ai/ha, visual injury rating after approximately 10 d, read-out: Barnyardgrass plant response rating (0 to 100 scale, 0 is no effect, 100 is complete control)) of the same molecule?
The pest or weed control at 125 g/ha was 100%.

What about the pest or weed control at 31 g/ha ([16]; 31 g ai/ha, Preemergence) of the same molecule?
The pest or weed control at 31 g/ha was 20%.

What about the pest or weed control at 125 g/ha [16, 19] of the same molecule?
The pest or weed control at 125 g/ha was 50%.

And the pest or weed control at 31 g/ha ([17]; 31 g ai/ha, 0 to 100 scale where 0 is no effect and 100 is complete control, read-out: Foxtail, Giant plant response rating)?
Its pest or weed control at 31 g/ha is 100%.

And the pest or weed control at 125 g/ha ([17]; 125 g ai/ha, visual injury rating after approximately 10 d, read-out: Foxtail, Giant plant response rating (0 to 100 scale, 0 is no effect, 100 is complete control))?
Its pest or weed control at 125 g/ha is 100%.

And the pest or weed control at 31 g/ha (Kochia (Kochia scoparia) [18]; 31 g ai/ha, Preemergence)?
The pest or weed control at 31 g/ha was 0%.

What about the pest or weed control at 125 g/ha (Kochia (Kochia scoparia) [18]; [19]) of the same molecule?
The pest or weed control at 125 g/ha was 20%.
